# Measurements reported in a melting point compilation (Tetko et al.; mined from patent text by program, amines drawn as free bases though some values may be those of a salt).
row,melting point,Compound
1,203 to 206 °C,CC(C)c1ccc(N(Cc2ccc(N(C)C)cc2)C(=O)Nc2c(C(C)C)cccc2C(C)C)cc1
2,99 to 102 °C,CCOC(=O)c1ccc2c(c1)c(-c1ccccc1)nn2CCC#N
3,123 to 127 °C,O=[N+]([O-])c1cnc(Oc2cnc3ccccc3c2)c(Cl)c1
4,94 to 96 °C,CCCCOc1ccc(C(=O)O)c(OC)c1
5,297 to 300 °C,NC(=O)C(=O)Nc1nc(-c2cc3ccccc3oc2=O)cs1
6,> 260 °C,Nc1nc(O)c2cc(C#Cc3ccc(C(=O)O)cc3)cnc2n1
7,68 °C,Cc1c(C=O)cccc1C(=O)c1ccc(Cl)cc1
8,251 to 252 °C,CC1(C)Oc2ccc(C#N)cc2C(n2nc(O)ccc2=O)C1O (stereo unspecified)
9,127 to 128 °C,CC(C)(C)OC(=O)NC(=N)c1ccc(C(=O)NCCC(=O)OCc2ccccc2)cc1
10,257 to 258 °C,Cc1cccc(C(=O)Nc2c[nH]nc2C(=O)NCC(F)(F)F)n1
11,> 260 °C,O=Cc1nn(-c2ccc(O)cc2)c2c1CCCC2Cc1cccc2ccccc12 (stereo unspecified)
12,176 to 177 °C,O=C1C(c2ccccc2)=C(c2cccs2)C(=O)N1c1ccc(Cl)cc1
13,115 to 116 °C,Fc1ccccc1-c1nc2c(s1)NCCCC2
14,128 °C,Cn1nc(-c2ccc(Cl)cc2Cl)cc1O
15,129 to 131 °C,CCCCC1OC(=O)c2cc(N)ccc21 (stereo unspecified)
16,186 to 191 °C,O=C(Nc1ccccc1C(=O)O)c1cccc(OC(F)F)c1
17,78 to 80 °C,CC1(C)C(=O)ON(Cc2cc(Cl)ccc2Cl)C1=O
18,184 to 186 °C,CCc1cccc2sc(COc3ccc(F)c(C(N)=O)c3F)nc12
19,88 to 92 °C,O=[N+]([O-])c1ccc(C2OCCO2)cc1
20,208 to 210 °C,COc1ccc(N2CCN(C(=O)c3ccccc3C(c3ccc(O)cc3)c3ccc(O)cc3)CC2)cc1
21,62 to 63 °C,O=S(c1ccccc1-c1ccccc1)C(F)(F)C(F)(F)C(F)(F)C(F)(F)C(F)(F)C(F)(F)C(F)(F)C(F)(F)F (stereo unspecified)
22,102 to 103 °C,OC(=S)C=Cc1cccc2ccccc12
23,155 to 156 °C,N#CCCNC(=O)c1cccc(-c2ccc3c(c2)N(c2cccc(Cl)c2Cl)CC3)c1
24,123 to 124 °C,CCOC(=O)n1c2ccccc2c(=O)n1Cc1ccc([N+](=O)[O-])cc1
25,192 to 194 °C,O=C(Nc1ccc(C(O)(C(F)(F)F)C(F)(F)F)cc1)Oc1ccccc1

row,melting point,Compound
1,57 to 59 °C,CCCN(CCC)Sc1nc2ccccc2s1
2,134 to 136 °C,CS(=O)(=O)c1ccc(-c2cc(C(=O)CCCO[N+](=O)[O-])nn2-c2ccc(F)cc2)cc1
3,166 to 169 °C,N[C@H]1CC[C@H](CNc2ncc3ncnc(Nc4ccc(F)c(Cl)c4)c3n2)CC1
4,75 to 77 °C,CC1(C)Cc2cc(S(=O)(=O)Cl)ccc2O1
5,34.5 to 35 °C,CC1(C)CCC(C(=O)COS(=O)(=O)c2ccccc2)CC1
6,188 to 190 °C,CCc1cccc2c3c([nH]c12)C(CC)(CC(=O)OC)OCC3=NO (stereo unspecified)
7,85 to 88 °C,CCC(=O)Oc1cccc(NC(=O)CBr)c1
8,67 to 68 °C,CC(=O)OC1CSC(Oc2cc(-c3cccnc3)cnc2F)C(OC(C)=O)C1OC(C)=O (stereo unspecified)
9,147 to 150 °C,CCCc1nc2c(N)nc3ccccc3c2n1CCCON=C(C)C
10,254 to 255 °C,Nc1nnc(-c2ccc3ncn(-c4ccccc4Cl)c3c2)o1
11,117 to 118 °C,Cc1nnc(-c2ccc3occ(-c4ccccc4)c3c2)o1
12,173 to 174 °C,CC(C)(C)c1cc(OCc2ccccc2C(=O)O)cc(C(C)(C)C)c1
13,162 to 168 °C,CCCCc1nc2ccccn2c(=O)c1-c1ccc(N[C@@H]2CCN(C(=O)OC(C)(C)C)C2)cc1C
14,220 to 222 °C,O=C1CC2(CN1)CC(=O)c1cc(Cl)ccc12 (stereo unspecified)
15,124 to 126 °C,C[C@@](N)(Cc1ccc(-c2cncnc2)cc1)C(=O)Nc1cc(Cl)cc(Cl)c1
16,122 to 124 °C,CCOC(=O)C(=NOCC(C)C)c1csc(N)n1
17,143 to 147 °C,COC(=O)N[C@H]1CC[C@H](CCN2CCN(c3cccc(Cl)c3Cl)CC2)CC1
18,56.5 to 57.5 °C,COc1ccc(OCCc2ccccc2)c(CC(=O)O)c1
19,110 to 112 °C,COc1cc(Oc2c(Cl)cccc2C(F)(F)F)nc(C(=O)O)c1
20,69 to 70 °C,COC(=O)C(CCSC)NC(=O)c1ccc(NC(=O)Cc2cn(C)cn2)cc1-c1ccccc1 (stereo unspecified)
21,203 to 204 °C,CSc1ccc2nc[nH]c(=O)c2c1
22,102 to 104 °C,CCCc1cc(Cl)c2oc(-c3ccccc3)c(C)c2c1O
23,99 to 101 °C,CCOc1cc(CO)ncc1C
24,73 to 75 °C,C[Si](C)(C)CCCCCC1=C(O)C(=O)c2ccccc2C1=O
25,182 to 183 °C,CC(C)(Cc1c(Sc2ccccc2)c2cc(-c3ccccc3)ccc2n1Cc1ccc(Cl)cc1)C(=O)O

row,melting point,Compound
1,201 to 202 °C,CCOC(=O)c1[nH]c2cc(Cl)c(Cl)cc2c1-c1ccccc1
2,169 to 171 °C,COc1cc2ncnc(N3CCN(C(=S)Nc4cccc(C(C)C)c4)CC3)c2cc1OC
3,172 to 174 °C,ON=CNc1ccc(N2CCOCC2)nc1
4,65 to 66 °C,CCOC(=O)c1cn(C)nc1Cl
5,142 °C,CCCCC(C(=O)N1CCCCC1)c1ccc(C(=O)O)cc1 (stereo unspecified)
6,220 to 222 °C,CSCC(=O)Nc1ccc(C2=NNC(=O)CC2C)cc1 (stereo unspecified)
7,191 to 192 °C,N#CNC(=NC1CCN(Cc2ccccc2)CC1)N1Cc2ccccc2C1
8,258 to 259 °C,CCOCc1nc2c(N)nc3cc(OCc4nc5ccccc5s4)ccc3c2n1CC(C)(C)NS(C)(=O)=O
9,232 to 233 °C,CN1CCN(c2cccc3c2C[C@H](NC(=O)c2ccc(-c4ccccc4)cc2)CC3)CC1
10,70 °C,Cc1c(-c2ccccc2)nc(C(F)(F)F)oc1=O
11,178 to 180 °C,CC(C)(C)NCC(=O)NCCn1ccc2ncnc(Nc3ccc(Oc4cccc5sncc45)c(Cl)c3)c21
12,117 to 118 °C,Cc1nc(C)c(C(=O)Nc2cccc3c2C(C)CC3(C)C)s1 (stereo unspecified)
13,160 to 161 °C,COc1ccc(/C(=N\O)c2cccc(NS(=O)(=O)N(C)C)c2)cc1
14,186 to 188 °C,CCNC(=O)Nc1ccc(N(C)C)cc1C(=O)NCC1CCN(C(c2ccccc2)c2ccccc2)CC1
15,167 to 169 °C,CCOc1nn(CCOc2ccccc2CC(=O)O)cc1C(=O)NCc1ccc(Cl)cc1Cl
16,166 to 169 °C,CN1CCN(CCCN2c3ccc(F)cc3Sc3ccc(S(=O)(=O)N(C)C)cc32)CC1
17,237 to 239 °C,CN1CCN(CCc2[nH]c(=O)[nH]c2-c2ccc(F)cc2)CC1
18,140 °C,O=S(=O)(c1ccc(Nc2nccc(Nc3ccc(F)cc3)n2)cc1)N1CCC(C(O)c2ccncc2F)CC1 (stereo unspecified)
19,158 °C,Cc1cccc(CN2NCC(=O)NC2=O)c1
20,64 to 66 °C,CCNC(=O)c1ccccc1[Si](C)(C)C
21,41 to 43 °C,OCCCCCCCCCCCC(F)(F)C(F)(F)F
22,152 to 153 °C,CO[C@@H]1c2ccn3c(C)c(C)nc3c2N[C@H](c2ccccc2)[C@H]1OC=O
23,131 to 133 °C,O=C(Cc1ccc([N+](=O)[O-])cc1)c1ccc([N+](=O)[O-])cc1
24,91 to 93 °C,Cc1ccccc1-c1cc(-n2cncn2)ncc1C(=O)N(C)Cc1cc(C(F)(F)F)cc(C(F)(F)F)c1
25,270 to 271 °C,COc1ccc2c(c1)C(=NO)c1c-2cnc2ccccc12

row,melting point,Compound
1,218 to 221 °C,CC1(C(=O)O)CCc2cc(O)c(C(C)(C)C)cc2O1 (stereo unspecified)
2,119 to 121 °C,COc1cccc(C(=O)C=C(SC)SC)c1
3,146 to 151 °C,O=C(Nc1c([N+](=O)[O-])cnn1-c1c(Cl)cc(C(F)(F)F)c(Cl)c1Cl)C(F)F
4,266 to 267 °C,Cc1ccc(/C=C/c2ccc3nc(C(=O)N[C@@H](Cc4ccc(OCc5ccccc5)cc4)C(=O)O)cn3c2)cc1
5,45.1 to 46.1 °C,CCCCc1ccc(C(=O)Oc2ccc(C#N)c(F)c2)nc1
6,165 to 168 °C,CC(C)(O)CN1CCN(c2ccc3nc(-c4cccs4)c(-c4ccncc4)n3n2)CC1
7,134 to 136 °C,COc1ccc(CCN(C(C)=O)c2c(C)c(C)c3c(c2C)C(c2ccc(C(C)C)cc2)C(C)(C)O3)cc1 (stereo unspecified)
8,60 to 61 °C,O=C1C2CC2C(=O)N1CCC1=CCCCC1 (stereo unspecified)
9,175 to 178 °C,COC(=O)Nc1nc2cc(SCC3(C)CC3(Cl)Cl)ccc2[nH]1 (stereo unspecified)
10,249 to 251 °C,CCCS(=O)(=O)Nc1ccc(Sc2c(O)c3c(=O)n(-c4ccccc4)c4ccccc4c3oc2=O)cc1
11,167 to 170 °C,N#CC(C(=O)c1nn(-c2ccccc2)c2c1CSc1ccccc1-2)C(=S)Nc1ccccc1 (stereo unspecified)
12,98.5 to 99 °C,CCCCC[C@@H](CNC(=O)Nc1c(OC(C)C)c(C)nn1C(C)(C)C)c1cccc2c1OCO2
13,110 to 111 °C,Cn1nc(-c2ncc(Cl)cc2F)cc1Br
14,149 to 150 °C,CCC(CC)(CC(=O)Nc1cccc(OCc2ccc3ccccc3n2)c1)C(=O)O
15,224 to 226 °C,Cc1nc2c(-c3cccc(N4CCN(C)CC4)c3)cnn2c(N)c1-c1ccc(F)c(Cl)c1
16,49 to 53 °C,Nc1ccc(SCC2CCC2)cc1[N+](=O)[O-]
17,126 °C,COc1cc(N)c(Cl)cc1C(=O)NC1CCN(CCCOc2ccc(F)cc2)CC1(F)F (stereo unspecified)
18,227 °C,CC(C)c1ccc(S(=O)(=O)n2c(Cc3ccc(C(=O)O)cc3)cc3cc(C(F)(F)F)ccc32)cc1
19,96 to 97 °C,CCCCCC(=O)Nc1c(C)c(C)c2c(c1C)C(c1ccc(C)cc1)C(C)(C)O2 (stereo unspecified)
20,209 to 211 °C,O=C(O)c1ccc(Cl)c(S)c1
21,175 to 177 °C,COc1nc(Cl)cnc1N(C(=O)OCC(C)C)S(=O)(=O)c1ccccc1-c1ccc(O)cc1
22,171 to 173 °C,CCCn1cc(-c2ccncc2)cc(N)c1=O
23,104 to 108 °C,COc1ccc2c(c1)CCC1C2CCC2(C)C(=O)CC(C(C)C)C12 (stereo unspecified)
24,216 to 220 °C,COc1ccccc1-c1cc2c(c(Br)cn2C)c2c1C(=O)NC2=O
25,180 °C,CC(C)c1ccc(N(CC(=O)N2CCOCC2)C(=O)C2CCCc3ccccc32)cc1 (stereo unspecified)

row,Compound,melting point
1,NS(=O)(=O)c1ccccc1CCl,156 to 158 °C
